Measurements reported in US8999956B2, “N-[(het)arylalkyl)] pyrazole(thio)carboxamides and their heterosubstituted analogues” (Bayer Intellectual Property GmbH, priority 2010, dated 2015).
Read-outs that look alike come from different tables or passages of the source.

Legend:
Alternaria solani = test: In vivo preventive test on Alternaria solani (tomato); details: 500 ppm of active ingredient, evaluated 7 days after inoculation
How it was run: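 Young tomato plants sprayed preventively with compound in DMF/alkylarylpolyglycolether emulsion diluted in water to the stated rate. Inoculation with aqueous Alternaria solani spore suspension one day after treatment.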

Pyrenophora teres = test: In vivo preventive test on Pyrenophora teres (barley); details: 500 ppm of active ingredient, evaluated 7-9 days after inoculation
How it was run: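 Compound formulated in N,N-dimethylformamide with alkylaryl polyglycol ether emulsifier and diluted in water, then sprayed on young barley plants at the stated application rate. Plants inoculated one day later with aqueous Pyrenophora teres spore suspension, testing preventive protection.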

Venturia inaequalis = test: In vivo preventive test on Venturia inaequalis (apple scab); details: 100 ppm of active ingredient, evaluated 10 days after inoculation
Method: (§1) Solvent: 24.5 parts by weight of acetone • 24.5 parts by weight of N,N-dimethylacetamide Emulsifier: 1 part by weight of alkylaryl polyglycol ether To produce a suitable preparation of active compound, 1 part by weight of active compound is mixed with the stated amounts of solvent and emulsifier, and the concentrate is diluted with water to the desired concentration. To test for preventive activity, young plants are sprayed with the preparation of active compound at the stated rate of application.

Uromyces appendiculatus = test: In vivo preventive test on Uromyces appendiculatus (beans); details: 100 ppm of active ingredient, evaluated 10 days after inoculation
Method: as §1

Botrytis cinerea = test: In vivo preventive test on Botrytis cinerea (beans); details: Table L, 500 ppm of active ingredient, lesion size 2 days after inoculation
Method: Solvent: 24.5 parts by weight of acetone • 24.5 parts by weight of N,N-dimethylacetamide
Emulsifier: 1 part by weight of alkylaryl polyglycol ether
To produce a suitable preparation of active compound, 1 part by weight of active compound is mixed with the stated amounts of solvent and emulsifier, and the concentrate is diluted with water to the desired concentration.
To test for preventive activity, young plants are sprayed with the preparation of active compound. After the spray coating has dried on, 2 small pieces of agar covered with growth of Botrytis cinerea are placed on each leaf. The inoculated plants are placed in a darkened chamber at 20° C. and a relative atmospheric humidity of 100%.
2 days after the inoculation, the size of the lesions on the leaves is evaluated. 0% means an efficacy which corresponds to that of the untreated control, while an efficacy of 100% means that no disease is observed.

[1] = log P by HPLC on reversed-phase column (EEC Directive 79/831 Annex V.A8); assay type: physicochemical
Method: In table 1, the log P values were determined in accordance with EEC Directive 79/831 Annex V.A8 by HPLC (High Performance Liquid Chromatography) on a reversed-phase column (C18), using the method described below: Temperature: 40° C.; […]

Sphaerotheca fuliginea = test: In vivo preventive test on Sphaerotheca fuliginea (cucumber); details: 500 ppm of active ingredient, evaluated 7 days after inoculation
Method: Solvent: 49 parts by weight of N,N-dimethylformamide Emulsifier: 1 part by weight of Alkylarylpolyglycolether To produce a suitable preparation of active compound, 1 part by weight of active compound is mixed with the stated amounts of solvent and emulsifier, and the concentrate is diluted with water to the desired concentration. To test for preventive activity, young plants are sprayed with the preparation of active compound at the stated rate of application. One day after this treatment, the plants are inoculated with an aqueous spore suspension of Sphaerotheca fuliginea. Then the plants are placed in a greenhouse at approximately 23° C. and a relative atmospheric humidity of approximately 70%.

Septoria tritici = test: In vivo preventive test on Septoria tritici (wheat); details: 500 ppm of active ingredient, evaluated 21 days after inoculation
Method: Solvent: 49 parts by weight of N,N-dimethylacetamide Emulsifier: 1 part by weight of alkylaryl polyglycol ether To produce a suitable preparation of active compound, 1 part by weight of active compound or active compound combination is mixed with the stated amounts of solvent and emulsifier, and the concentrate is diluted with water to the desired concentration. To test for preventive activity, young plants are sprayed with the preparation of active compound or active compound combination at the stated rate of application. After the spray coating has been dried, the plants are sprayed with a spore suspension of Septoria tritici.

[2] = test system: Blumeria graminis fsp. hordei; test: In vivo preventive test on Blumeria graminis (barley); details: 500 ppm of active ingredient, evaluated 7 days after inoculation
Method: Solvent: 49 parts by weight of N,N-dimethylacetamide Emulsifier: 1 part by weight of alkylaryl polyglycol ether To produce a suitable preparation of active compound, 1 part by weight of active compound or active compound combination is mixed with the stated amounts of solvent and emulsifier, and the concentrate is diluted with water to the desired concentration. To test for preventive activity, young plants are sprayed with the preparation of active compound or active compound combination at the stated rate of application. After the spray coating has been dried, the plants are dusted with spores of Blumeria graminis fsp. hordei.

[3] = test system: Fusarium nivale (var. majus); test: In vivo preventive test on Fusarium nivale (wheat); details: 500 ppm of active ingredient, evaluated 5 days after inoculation
Method: Solvent: 49 parts by weight of N,N-dimethylacetamide Emulsifier: 1 part by weight of alkylaryl polyglycol ether To produce a suitable preparation of active compound, 1 part by weight of active compound or active compound combination is mixed with the stated amounts of solvent and emulsifier, and the concentrate is diluted with water to the desired concentration. To test for preventive activity, young plants are sprayed with the preparation of active compound or active compound combination at the stated rate of application. After the spray coating has been dried, the plants are slightly injured by using a sandblast and afterwards they are sprayed with a conidia suspension of Fusarium nivale (var. majus).

Puccinia triticina = test: In vivo preventive test on Puccinia triticina (wheat); details: Table K, 500 ppm of active ingredient, evaluated 8 days after inoculation
[4] = test system: aflatoxines produced by Aspergillus parasiticus; test: microbe, parasite or virus in culture; assay type: cell-based
Aspergillus parasiticus = test: microbe, parasite or virus in culture; assay type: cell-based
Leptosphaeria nodorum = test: In vivo preventive test on Leptosphaeria nodorum (wheat); details: 500 ppm of active ingredient, evaluated 7-9 days after inoculation
Method: as §1, with “Solvent: 49 parts by” for “Solvent: 24.5 parts by weight of acetone • 24.5 parts by”, “sprayed with a preparation of” for “sprayed with the preparation of”, “of application. One day after this treatment, the plants are inoculated with an aqueous spore suspension of Leptosphaeria nodorum.” for “of application.”

Cn1nc(C(F)F)c(C(=O)NCC2CCCC(C(F)(F)F)C2)c1Cl (mixture of isomers) [Example 378]
Efficacy (Alternaria solani): 100% | Efficacy (Pyrenophora teres): 100% | Efficacy (Venturia inaequalis): 100% | Efficacy (Uromyces appendiculatus): 100% | Efficacy (Botrytis cinerea): 96%

Cn1nc(C(F)F)c(C(=O)N(C2CC2)C2CCCCC2C2=CCCCC2)c1F (stereo not shown) [Example 376]
Efficacy (Uromyces appendiculatus): 94% | logP [1]: 4.88

Cn1nc(C(F)F)c(C(=O)NC2CCCC2CCC(C)(C)C)c1F (stereo not shown) [Example 319, 3-(difluoromethyl)-N-[2-(3,3-dimethylbutyl)cyclopentyl]-5-fluoro-1-methyl-1H-pyrazole-4-carboxamide]
Efficacy (Sphaerotheca fuliginea): 100% | Efficacy (Alternaria solani): 100% | Efficacy (Pyrenophora teres): 100% | Efficacy (Septoria tritici): 100% | Efficacy [2]: 100% | Efficacy [3]: 100% | pest or weed control at 500 ppm (Puccinia triticina; Puccinia triticina, 192 h, read-out: Efficacy): 80% | Efficacy (Botrytis cinerea): 73% | inhibition at 50 µM ([4]; Aspergillus parasiticus, 168 h, read-out: % Inhibition of Aflatoxin at 50 μM): 100% | inhibition at 50 µM (Aspergillus parasiticus; Aspergillus parasiticus, 168 h, read-out: % Inhibition of fungal growth at 50 μM): 89% | chromatographic logP ([1]; log P (isomer A)): 4.22 | chromatographic logP ([1]; log P (isomer B)): 4.28 | chromatographic logP ([1]; logP): 4.22

Cn1nc(C(F)F)c(C(=O)NC2CCCC2CCC(C)(C)C)c1Cl (stereo not shown) [Example 320]
Efficacy (Sphaerotheca fuliginea): 100% | Efficacy (Alternaria solani): 100% | Efficacy (Pyrenophora teres): 95% | Efficacy (Venturia inaequalis): 100% | Efficacy (Uromyces appendiculatus): 99% | Efficacy (Puccinia triticina): 70% | % Inhibition of Aflatoxin at 50 μM [4]: 99% | % Inhibition of fungal growth at 50 μM (Aspergillus parasiticus): 82% | logP [1]: 4.49

CC(C)CC(C)C1CCCC1NC(=O)c1c(C(F)F)nn(C)c1F (single isomer, unassigned) [Example 316]
Efficacy (Sphaerotheca fuliginea): 98% | Efficacy (Alternaria solani): 90% | Efficacy (Pyrenophora teres): 100% | Efficacy (Venturia inaequalis): 100% | Efficacy (Leptosphaeria nodorum): 80% | Efficacy (Uromyces appendiculatus): 100% | Efficacy (Puccinia triticina): 100% | % Inhibition of Aflatoxin at 50 μM [4]: 100% | % Inhibition of fungal growth at 50 μM (Aspergillus parasiticus; 50 µM): 100% | logP [1]: 4.19 isomer A

CC(CCc1c(Cl)cc(Cl)cc1Cl)N(C(=O)c1c(C(F)F)nn(C)c1F)C1CC1 (stereo not shown) [Example 213]
Efficacy (Sphaerotheca fuliginea): 99% | Efficacy (Alternaria solani): 100% | Efficacy (Pyrenophora teres): 100% | Efficacy (Septoria tritici): 93% | Efficacy [2]: 100% | Efficacy [3]: 93% | Efficacy (Leptosphaeria nodorum): 95% | Efficacy (Puccinia triticina): 90% | Efficacy (Botrytis cinerea): 86% | % Inhibition of Aflatoxin at 50 μM [4]: 100% | % Inhibition of fungal growth at 50 μM (Aspergillus parasiticus): 100% | logP [1]: 5.14

CC(C)CC(C)C1CCCC1NC(=O)c1c(C(F)F)nn(C)c1Cl (single isomer, unassigned) [Example 314]
Efficacy (Sphaerotheca fuliginea): 90% | Efficacy (Alternaria solani): 95% | Efficacy (Pyrenophora teres): 100% | Efficacy (Venturia inaequalis): 98% | Efficacy (Leptosphaeria nodorum): 80% | Efficacy (Uromyces appendiculatus): 85% | logP [1]: 4.47 isomer C

CC(C)CC(C)C1CCCC1NC(=O)c1c(C(F)F)nn(C)c1Cl (single isomer, unassigned) [Example 313]
Efficacy (Alternaria solani): 80% | Efficacy (Pyrenophora teres): 100% | Efficacy (Uromyces appendiculatus): 88% | % Inhibition of Aflatoxin at 50 μM ([4]; 50 µM): 99% | % Inhibition of fungal growth at 50 μM (Aspergillus parasiticus; 50 µM): 82% | logP [1]: 4.46 isomer B

CC(C)CC(C)C1CCCC1NC(=O)c1c(C(F)F)nn(C)c1Cl (single isomer, unassigned) [Example 312]
Efficacy (Sphaerotheca fuliginea): 90% | Efficacy (Alternaria solani): 95% | Efficacy (Pyrenophora teres): 100% | Efficacy (Venturia inaequalis): 99% | Efficacy (Leptosphaeria nodorum): 95% | Efficacy (Uromyces appendiculatus): 100% | Efficacy (Puccinia triticina): 100% | % Inhibition of Aflatoxin at 50 μM ([4]; 50 µM): 100% | % Inhibition of fungal growth at 50 μM (Aspergillus parasiticus; 50 µM): 99% | logP [1]: 4.40 isomer A

CON(C(=O)c1c(C(F)F)nn(C)c1Cl)C(C)CCc1c(Cl)cc(Cl)cc1Cl (stereo not shown) [Example 218]
Efficacy (Alternaria solani): 90% | Efficacy (Pyrenophora teres): 100% | Efficacy (Venturia inaequalis): 100% | Efficacy (Septoria tritici): 86% | Efficacy [3]: 100% | Efficacy (Uromyces appendiculatus): 95% | logP [1]: 4.89

CCCCC1CCCC1NC(=O)c1c(C(F)F)nn(C)c1Cl (stereo not shown) [Example 307]
Efficacy (Sphaerotheca fuliginea): 83% | Efficacy (Alternaria solani): 100% | Efficacy (Pyrenophora teres): 100% | Efficacy (Venturia inaequalis): 100% | Efficacy (Uromyces appendiculatus): 100% | Efficacy (Puccinia triticina): 80% | % Inhibition of Aflatoxin at 50 μM [4]: 100% | % Inhibition of fungal growth at 50 μM (Aspergillus parasiticus): 92% | logP [1]: 3.83

CC(N(C(=O)c1c(C(F)F)nn(C)c1F)C1CC1)C(C)(C)Cc1ccc(Cl)cc1Cl (stereo not shown) [Example 181]
Efficacy (Sphaerotheca fuliginea): 100% | Efficacy (Alternaria solani): 100% | Efficacy (Pyrenophora teres): 100% | Efficacy (Venturia inaequalis): 100% | Efficacy (Septoria tritici): 100% | Efficacy [2]: 100% | Efficacy (Leptosphaeria nodorum): 95% | Efficacy (Uromyces appendiculatus): 78% | logP [1]: 5.14

CCCCCCC1CCCCC1NC(=O)c1c(C(F)F)nn(C)c1F (stereo not shown) [Example 326]
Efficacy (Septoria tritici): 78% | Efficacy [3]: 92% | Efficacy (Puccinia triticina): 100% | logP [1]: 5.07

CC(C)CCC1CCCC1NC(=O)c1c(C(F)F)nn(C)c1F (stereo not shown) [Example 310]
Efficacy (Sphaerotheca fuliginea): 100% | Efficacy (Alternaria solani): 100% | Efficacy (Pyrenophora teres): 100% | Efficacy (Venturia inaequalis): 100% | Efficacy (Uromyces appendiculatus): 100% | % Inhibition of Aflatoxin at 50 μM [4]: 100% | % Inhibition of fungal growth at 50 μM (Aspergillus parasiticus): 96% | logP [1]: 3.98

CC(C)CC(C)C1CCCCC1NC(=O)c1c(C(F)F)nn(C)c1F (single isomer, unassigned) [Example 337]
Efficacy (Sphaerotheca fuliginea): 100% | Efficacy (Alternaria solani): 100% | Efficacy (Pyrenophora teres): 100% | Efficacy (Venturia inaequalis): 74% | Efficacy (Septoria tritici): 78% | Efficacy (Uromyces appendiculatus): 86% | Efficacy (Puccinia triticina): 70% | Efficacy (Botrytis cinerea): 93% | logP [1]: 4.47 isomer A

CCCC1CCCCC1NC(=O)c1c(C(F)F)nn(C)c1F (single isomer, unassigned) [Example 343]
Efficacy (Alternaria solani): 95% | Efficacy (Pyrenophora teres): 100% | Efficacy (Venturia inaequalis): 97% | Efficacy (Septoria tritici): 100% | Efficacy [2]: 94% | Efficacy [3]: 100% | Efficacy (Puccinia triticina): 70% | % Inhibition of Aflatoxin at 50 μM [4]: 100% | % Inhibition of fungal growth at 50 μM (Aspergillus parasiticus; 50 µM): 87% | logP [1]: 3.42 isomer A
